# From PubChem BioAssay (NCI)
#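 GI50: concentration for 50% inhibition of growth. TGI denotes the concentration required for complete inhibition of growth.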
# Tests used:
# Assay in all cases: inhibition of tumour cell growth, NCI panel, 384-well format
# MALME-3M melanoma = test system: MALME-3M melanoma
# COLO 205 colon = test system: COLO 205 colon
# NCI/ADR-RES ovarian = test system: NCI/ADR-RES ovarian
# EKVX NSCLC = test system: EKVX NSCLC
# ACHN renal = test system: ACHN renal
# SK-MEL-5 melanoma = test system: SK-MEL-5 melanoma
# CCRF-CEM leukemia = test system: CCRF-CEM leukemia
# 786-0 renal = test system: 786-0 renal
# SK-OV-3 ovarian = test system: SK-OV-3 ovarian
# NCI-H322M lung = test system: NCI-H322M lung
# SN12C renal = test system: SN12C renal
# T-47D breast = test system: T-47D breast
# K-562 leukemia = test system: K-562 leukemia
# SR leukemia = test system: SR leukemia
# A549 NSCLC = test system: A549 NSCLC
# SNB-75 CNS = test system: SNB-75 CNS
# RXF 393 renal = test system: RXF 393 renal
# HT29 colon = test system: HT29 colon
# SNB-19 CNS = test system: SNB-19 CNS
# OVCAR-8 ovarian = test system: OVCAR-8 ovarian
# A498 renal = test system: A498 renal
# NCI-H226 lung = test system: NCI-H226 lung
# HL-60(TB) leukemia = test system: HL-60(TB) leukemia
# TK-10 renal = test system: TK-10 renal
# OVCAR-3 ovarian = test system: OVCAR-3 ovarian
# HS 578T breast = test system: HS 578T breast
# SK-MEL-28 melanoma = test system: SK-MEL-28 melanoma
# NCI-H460 NSCLC = test system: NCI-H460 NSCLC
# MCF7 breast = test system: MCF7 breast
# BT-549 breast = test system: BT-549 breast
# SF-539 CNS = test system: SF-539 CNS
# SF-295 CNS = test system: SF-295 CNS
# NCI-H522 lung = test system: NCI-H522 lung
# SF-268 CNS = test system: SF-268 CNS
# U251 glioblastoma = test system: U251 glioblastoma
# SW-620 colon = test system: SW-620 colon
# PC-3 prostate = test system: PC-3 prostate
# UO-31 renal = test system: UO-31 renal
# MDA-MB-231 breast = test system: MDA-MB-231 breast
# LOX IMVI melanoma = test system: LOX IMVI melanoma
# MOLT-4 leukemia = test system: MOLT-4 leukemia
# HCT-15 colon = test system: HCT-15 colon
# HCT-116 colon = test system: HCT-116 colon
# HCC-2998 colon = test system: HCC-2998 colon
# CAKI-1 renal = test system: CAKI-1 renal
# M14 melanoma = test system: M14 melanoma
# NCI-H23 lung = test system: NCI-H23 lung
# HOP-62 NSCLC = test system: HOP-62 NSCLC
# RPMI-8226 leukemia = test system: RPMI-8226 leukemia
# IGROV1 ovarian = test system: IGROV1 ovarian
# MDA-MB-435 melanoma = test system: MDA-MB-435 melanoma
# HOP-92 NSCLC = test system: HOP-92 NSCLC
# KM12 colon = test system: KM12 colon
# DU-145 prostate = test system: DU-145 prostate
# UACC-62 melanoma = test system: UACC-62 melanoma
# UACC-257 melanoma = test system: UACC-257 melanoma
# MDA-MB-468 breast = test system: MDA-MB-468 breast
# OVCAR-4 ovarian = test system: OVCAR-4 ovarian
smiles,measurement,setting,value
COCC(=O)NC/C=C/c1ccc2ncnc(Nc3ccc(Oc4ccc(C)nc4)c(C)c3)c2c1,GI50,MALME-3M melanoma,14.3 µM
same,TGI,MALME-3M melanoma,27.4 µM
same,GI50,COLO 205 colon,12.3 µM
same,TGI,COLO 205 colon,24.8 µM
same,GI50,NCI/ADR-RES ovarian,15 µM
same,TGI,NCI/ADR-RES ovarian,29.6 µM
same,GI50,EKVX NSCLC,9.72 µM
same,TGI,EKVX NSCLC,22.6 µM
same,GI50,ACHN renal,12.1 µM
same,TGI,ACHN renal,29.1 µM
same,GI50,SK-MEL-5 melanoma,3.38 µM
same,TGI,SK-MEL-5 melanoma,13.6 µM
same,GI50,CCRF-CEM leukemia,2.86 µM
same,TGI,CCRF-CEM leukemia,7.8 µM
same,GI50,786-0 renal,16 µM
same,TGI,786-0 renal,29.6 µM
same,GI50,SK-OV-3 ovarian,11.3 µM
same,TGI,SK-OV-3 ovarian,23.5 µM
same,GI50,NCI-H322M lung,10.7 µM
same,TGI,NCI-H322M lung,25.8 µM
same,GI50,SN12C renal,11.6 µM
same,TGI,SN12C renal,26.5 µM
same,GI50,T-47D breast,4.62 µM
same,TGI,T-47D breast,17.6 µM
same,GI50,K-562 leukemia,5.45 µM
same,TGI,K-562 leukemia,18.2 µM
same,GI50,SR leukemia,4.1 µM
same,TGI,SR leukemia,8.2 µM
same,GI50,A549 NSCLC,11.5 µM
same,TGI,A549 NSCLC,23.9 µM
same,GI50,SNB-75 CNS,15.9 µM
same,TGI,SNB-75 CNS,29.6 µM
same,GI50,RXF 393 renal,10.7 µM
same,TGI,RXF 393 renal,22.7 µM
same,GI50,HT29 colon,15.1 µM
same,TGI,HT29 colon,28.5 µM
same,GI50,SNB-19 CNS,15.2 µM
same,TGI,SNB-19 CNS,28.9 µM
same,GI50,OVCAR-8 ovarian,3.59 µM
same,TGI,OVCAR-8 ovarian,13.1 µM
same,GI50,A498 renal,14.3 µM
same,TGI,A498 renal,27.6 µM
same,GI50,NCI-H226 lung,16.4 µM
same,TGI,NCI-H226 lung,31.9 µM
same,GI50,HL-60(TB) leukemia,3.53 µM
same,TGI,HL-60(TB) leukemia,10.3 µM
same,GI50,TK-10 renal,12 µM
same,TGI,TK-10 renal,24.7 µM
same,GI50,OVCAR-3 ovarian,14.3 µM
same,TGI,OVCAR-3 ovarian,27.8 µM
same,GI50,HS 578T breast,11.9 µM
same,TGI,HS 578T breast,24.2 µM
same,GI50,SK-MEL-28 melanoma,17.1 µM
same,TGI,SK-MEL-28 melanoma,31.1 µM
same,GI50,NCI-H460 NSCLC,4.25 µM
same,TGI,NCI-H460 NSCLC,13.2 µM
same,GI50,MCF7 breast,4.11 µM
same,TGI,MCF7 breast,14.7 µM
same,GI50,BT-549 breast,13.7 µM
same,TGI,BT-549 breast,26.8 µM
same,GI50,SF-539 CNS,2.66 µM
same,TGI,SF-539 CNS,6.57 µM
same,GI50,SF-295 CNS,14 µM
same,TGI,SF-295 CNS,27.3 µM
same,GI50,NCI-H522 lung,1.29 µM
same,TGI,NCI-H522 lung,17.3 µM
same,GI50,SF-268 CNS,16.7 µM
same,TGI,SF-268 CNS,31 µM
same,GI50,U251 glioblastoma,15 µM
same,TGI,U251 glioblastoma,28.4 µM
same,GI50,SW-620 colon,11.1 µM
same,TGI,SW-620 colon,23.2 µM
same,GI50,PC-3 prostate,13.9 µM
same,TGI,PC-3 prostate,28.3 µM
same,GI50,UO-31 renal,12.6 µM
same,TGI,UO-31 renal,25.6 µM
same,GI50,MDA-MB-231 breast,10.7 µM
same,TGI,MDA-MB-231 breast,23.3 µM
same,GI50,LOX IMVI melanoma,12 µM
same,TGI,LOX IMVI melanoma,24.6 µM
same,GI50,MOLT-4 leukemia,6.77 µM
same,TGI,MOLT-4 leukemia,18.8 µM
same,GI50,HCT-15 colon,13 µM
same,TGI,HCT-15 colon,26.4 µM
same,GI50,HCT-116 colon,14.2 µM
same,TGI,HCT-116 colon,27.5 µM
same,GI50,HCC-2998 colon,17.5 µM
same,TGI,HCC-2998 colon,31.4 µM
same,GI50,CAKI-1 renal,10.9 µM
same,TGI,CAKI-1 renal,23.6 µM
same,GI50,M14 melanoma,17.1 µM
same,TGI,M14 melanoma,30.9 µM
same,GI50,NCI-H23 lung,15.1 µM
same,TGI,NCI-H23 lung,28.8 µM
same,GI50,HOP-62 NSCLC,15.4 µM
same,TGI,HOP-62 NSCLC,29.6 µM
same,GI50,RPMI-8226 leukemia,4.48 µM
same,TGI,RPMI-8226 leukemia,15.3 µM
same,GI50,IGROV1 ovarian,11.7 µM
same,TGI,IGROV1 ovarian,24.5 µM
same,GI50,MDA-MB-435 melanoma,15.6 µM
same,TGI,MDA-MB-435 melanoma,29.1 µM
same,GI50,HOP-92 NSCLC,13.4 µM
same,TGI,HOP-92 NSCLC,26.4 µM
same,GI50,KM12 colon,15.8 µM
same,TGI,KM12 colon,29.8 µM
same,GI50,DU-145 prostate,12.9 µM
same,TGI,DU-145 prostate,29.3 µM
same,GI50,UACC-62 melanoma,14.9 µM
same,TGI,UACC-62 melanoma,28.2 µM
same,GI50,UACC-257 melanoma,14.9 µM
same,TGI,UACC-257 melanoma,28.3 µM
same,GI50,MDA-MB-468 breast,2.19 µM
same,TGI,MDA-MB-468 breast,6.66 µM
same,GI50,OVCAR-4 ovarian,13.3 µM
same,TGI,OVCAR-4 ovarian,26.3 µM
